This is an account of results in patent US20030134784A1, “Nucleic acids and corresponding proteins entitled 83P2H3 and CaTrF2E11 useful in treatment and detection of cancer” (priority 2000, published 2003).

One assay deals with PC3-neo cells. The experiment in a line: ERK phosphorylation in response to ion channel activators (anti-phospho-ERK Western blotting). Type of assay: cell-based, human. Conditions: PC3-neo cells grown in 0.1% FBS, treated for 5 min. The text has this: (§1) FIG. 22. Mediation of ERK phosphorylation by hCaT via a variety of ion channel activators. Control and 83P2H3/hCaT-expressing PC3 cell were compared for their ability to induce ERK phosphorylation in response to ion channel activators known to regulate intracellular calcium levels in several cell types. […] Whole cell lysates were separated by SDS-PAGE and analyzed by Western blotting using an anti-phospho-ERK monoclonal antibody (New England Nuclear, Bedford, Mass.). Anti-ERK overlays were used to evaluate protein loading.
(§2) Many mammalian proteins have been reported to interact with signaling molecules and to participate in regulating signaling pathways (J Neurochem. 2001; 76:217-223). Using immunoprecipitation and Western blotting techniques, proteins are identified that associate with 83P2H3 and mediate signaling events. Several pathways known to play a role in cancer biology can be regulated by several of these genes, including phospholipid pathways such as P13K, AKT, etc, adhesion and migration pathways, including FAK, Rho, Rac-1, etc, as well as mitogenic/survival cascades such as ERK, p38, etc (Cell Growth Differ. 2000,11:279; J Biol Chem. 1999, 274:801; Oncogene 2000, 19:3003, J. Cell Biol. 1997, 138:913.). Using Western blotting techniques, the ability of 83P2H3 to regulate these pathways is examined. Cells expressing 83P2H3 and cells lacking these genes are either left untreated or stimulated with ions, channel activators, or antibodies. Cell lysates are analyzed using anti-phospho-specific antibodies (Cell Signaling, Santa Cruz Biotechnology) in order to detect phosphorylation and regulation of ERK, p38, AKT, P13K, PLC and other signaling molecules.
On the technique in general: In western blotting, separated proteins are transferred to a membrane and probed.

The test system of assay [1] is 83P2H3/hCaT-expressing PC3 cell. Described as above. Type of assay: cell-based, human. The settings on record: hCaT-expressing PC3 cells grown in 0.1% FBS, treated for 5 min.
Text: as §1, §2

The subject of a further assay is HLA-DR. The settings on record: cited from earlier work.
Another assay deals with T helper lymphocytes. The settings on record: regardless of HLA type; cited from earlier work.

Take `CCCCCCCCCCCCCC(=O)O[C@@H]1[C@@H](C)[C@@]2(O)[C@@H](C=C(CO)C[C@]3(O)C(=O)C(C)=C[C@@H]23)[C@@H]2C(C)(C)[C@]12OC(C)=O` [PMA]: the ERK phosphorylation entry (in the assay with PC3-neo cells; in assay [1]) was “induced ERK phosphorylation” throughout. For `C[C@H](CCC(=O)O)C[C@H](C)C[C@H](C)C(=O)/C=C(\O)[C@H](C)C[C@H](C)C/C=C/[C@@H](C)[C@@H](O)[C@@H](C)[C@@H](O)C[C@@H]1CC[C@@](C)([C@H]2CC[C@@](C)([C@@H](C)O)O2)O1` [ionomycin], in assay [1], the ERK phosphorylation result is recorded as “induced ERK phosphorylation”. Still for that read-out and setting: with LPA the entry was “induced ERK phosphorylation”.

As for aKXVAAWTLKAAa, in the assay on HLA-DR, the “Binding to HLA-DR alleles” value is recorded as “bind to most HLA-DR alleles”. The “Stimulation of the response of T helper lymphocytes” value in the assay with T helper lymphocytes is recorded as “stimulate the response of T helper lymphocytes from most individuals”.
